According to PMC5776081, “The Stoichiometric Interaction of the Hsp90-Sgt1-Rar1 Complex by CD and SRCD Spectroscopy” (Frontiers in Molecular Biosciences, 2018):

Molecular target: T1, Rar1 (Arabidopsis thaliana, UniProt Q9SE33)
T1 sequence (Q9SE33 1-226): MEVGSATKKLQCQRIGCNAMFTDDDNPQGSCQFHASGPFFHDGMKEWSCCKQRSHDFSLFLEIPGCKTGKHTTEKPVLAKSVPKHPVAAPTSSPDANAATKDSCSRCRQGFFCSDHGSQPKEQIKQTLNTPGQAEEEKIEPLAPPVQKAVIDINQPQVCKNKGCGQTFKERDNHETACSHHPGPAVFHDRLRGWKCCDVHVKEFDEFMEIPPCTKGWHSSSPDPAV
Assay: near-UV CD titration, non-linear fit at […] nm
Conditions: 4 °C; 1:1 site; authors call it weak non-specific binding; apparent Kd

Kd: 2000 µM
Structure (SMILES): Nc1ncnc2c1ncn2[C@@H]1O[C@H](COP(=O)(O)OP(=O)(O)O)[C@@H](O)[C@H]1O [ADP]
